ChEMBL document CHEMBL2321665, “Treatment of Obesity and Related Disorders with Acetyl-CoA Carboxylase Inhibitors” (ACS Med Chem Lett, 2013)

How the values were obtained:
[1] = molecular target: Acetyl-CoA carboxylase 2 (Homo sapiens, UniProt O00763); assay: Inhibition of human recombinant ACC2
[2] = molecular target: Acetyl-CoA carboxylase 1 (Homo sapiens, UniProt Q13085); assay: Inhibition of human recombinant ACC1

Acetyl-CoA carboxylase 2, sequence (O00763 whole entry): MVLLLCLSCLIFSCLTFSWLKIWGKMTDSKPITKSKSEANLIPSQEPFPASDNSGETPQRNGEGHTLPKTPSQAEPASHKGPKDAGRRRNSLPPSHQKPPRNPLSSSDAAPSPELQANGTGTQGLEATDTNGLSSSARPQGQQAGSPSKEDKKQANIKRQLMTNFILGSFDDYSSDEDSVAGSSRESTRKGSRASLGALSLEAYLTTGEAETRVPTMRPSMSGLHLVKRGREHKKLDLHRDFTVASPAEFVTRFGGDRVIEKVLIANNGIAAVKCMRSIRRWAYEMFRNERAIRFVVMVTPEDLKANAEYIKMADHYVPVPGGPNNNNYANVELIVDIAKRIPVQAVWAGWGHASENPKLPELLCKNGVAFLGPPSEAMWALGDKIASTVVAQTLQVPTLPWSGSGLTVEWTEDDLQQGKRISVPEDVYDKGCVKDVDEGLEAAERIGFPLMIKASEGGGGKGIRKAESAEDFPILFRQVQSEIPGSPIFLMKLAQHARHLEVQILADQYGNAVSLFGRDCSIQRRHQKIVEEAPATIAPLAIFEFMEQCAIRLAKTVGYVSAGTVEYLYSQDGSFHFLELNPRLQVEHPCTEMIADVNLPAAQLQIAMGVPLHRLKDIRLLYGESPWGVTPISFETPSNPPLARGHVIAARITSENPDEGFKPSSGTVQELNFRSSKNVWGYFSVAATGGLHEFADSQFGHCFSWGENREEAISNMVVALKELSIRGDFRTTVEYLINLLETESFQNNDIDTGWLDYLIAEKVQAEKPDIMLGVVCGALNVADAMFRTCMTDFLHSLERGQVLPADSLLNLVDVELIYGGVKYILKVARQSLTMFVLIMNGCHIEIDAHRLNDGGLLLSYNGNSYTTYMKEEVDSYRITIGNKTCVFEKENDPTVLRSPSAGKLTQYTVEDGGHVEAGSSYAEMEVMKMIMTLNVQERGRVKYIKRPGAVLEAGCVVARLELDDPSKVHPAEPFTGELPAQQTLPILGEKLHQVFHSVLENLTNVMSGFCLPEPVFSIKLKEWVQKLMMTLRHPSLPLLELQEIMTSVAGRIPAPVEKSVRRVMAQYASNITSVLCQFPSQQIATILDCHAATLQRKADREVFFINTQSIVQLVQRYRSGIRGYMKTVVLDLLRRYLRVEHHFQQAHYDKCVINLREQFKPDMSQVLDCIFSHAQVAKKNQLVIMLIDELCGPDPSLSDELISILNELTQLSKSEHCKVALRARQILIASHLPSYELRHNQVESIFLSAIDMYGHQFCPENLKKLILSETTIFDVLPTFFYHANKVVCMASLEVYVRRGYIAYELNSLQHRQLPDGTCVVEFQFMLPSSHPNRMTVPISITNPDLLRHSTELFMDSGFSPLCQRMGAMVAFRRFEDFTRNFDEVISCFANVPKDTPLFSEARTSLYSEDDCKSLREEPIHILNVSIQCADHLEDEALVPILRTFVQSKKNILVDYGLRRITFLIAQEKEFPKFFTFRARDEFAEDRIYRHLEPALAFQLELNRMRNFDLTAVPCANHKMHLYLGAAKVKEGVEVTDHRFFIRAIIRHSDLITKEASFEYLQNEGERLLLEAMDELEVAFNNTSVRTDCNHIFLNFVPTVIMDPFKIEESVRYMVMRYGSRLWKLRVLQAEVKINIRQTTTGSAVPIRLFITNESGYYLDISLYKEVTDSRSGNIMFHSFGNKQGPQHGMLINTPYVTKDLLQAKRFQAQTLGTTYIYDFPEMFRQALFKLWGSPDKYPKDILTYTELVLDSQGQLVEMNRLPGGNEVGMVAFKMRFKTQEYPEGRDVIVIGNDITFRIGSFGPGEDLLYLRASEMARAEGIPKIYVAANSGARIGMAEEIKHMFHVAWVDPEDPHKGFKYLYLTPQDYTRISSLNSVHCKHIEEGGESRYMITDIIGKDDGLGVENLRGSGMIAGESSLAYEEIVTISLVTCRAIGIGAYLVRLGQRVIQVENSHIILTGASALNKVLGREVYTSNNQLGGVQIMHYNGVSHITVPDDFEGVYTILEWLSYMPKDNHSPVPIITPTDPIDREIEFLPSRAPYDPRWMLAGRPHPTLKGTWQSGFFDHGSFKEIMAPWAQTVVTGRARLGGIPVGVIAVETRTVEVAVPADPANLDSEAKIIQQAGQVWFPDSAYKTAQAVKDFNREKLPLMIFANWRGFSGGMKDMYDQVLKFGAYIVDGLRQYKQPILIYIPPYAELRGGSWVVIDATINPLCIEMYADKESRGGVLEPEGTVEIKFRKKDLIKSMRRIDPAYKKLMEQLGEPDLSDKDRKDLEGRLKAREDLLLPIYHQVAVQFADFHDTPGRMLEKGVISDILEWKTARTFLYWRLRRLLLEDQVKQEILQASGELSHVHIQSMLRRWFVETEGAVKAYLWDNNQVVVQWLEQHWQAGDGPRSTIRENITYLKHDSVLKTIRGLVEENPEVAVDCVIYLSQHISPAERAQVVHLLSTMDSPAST

IC50 [1] [nM]	IC50 [2] [nM]	SMILES
1.3	2.2	CNc1ccc2ccc(C(=O)N3CCC4(CC3)CC(=O)c3nn(C(C)(C)C)cc3C4)cc2n1
10	12	CC(C)n1ncc2c1C(=O)CC1(CCN(C(=O)c3ccc4ccc(N)nc4c3)CC1)C2
2.1	5	COc1ccc2ncc(C(=O)N3CCC4(CC3)CC(=O)c3c(cnn3C(C)C)C4)cc2c1
2.9	11	CC(C)n1ncc2c1C(=O)CC1(CCN(C(=O)c3ccc4[nH]c(C(N)=O)cc4c3)CC1)C2
